Results published in US9579328B2, “Prostaglandin and vasoconstrictor pharmaceutical compositions and methods of use” (ALLERGAN, INC., priority 2012, dated 2017).
Where two headings read alike, the source gives them in different places.

Assays:
[1] = tested on: conjunctiva of patients with bilateral open-angle glaucoma or ocular hypertension; details: bimatoprost 0.03% once daily, cited from earlier work
[2] = tested on: palpebral conjunctiva of Cynomolgus monkeys; details: cited from earlier work
[3] = tested on: eyes of conscious Beagle dogs; details: bimatoprost 0.1%, latanoprost 0.005%, cited from earlier work
conjunctiva of patients = test: Phase 3 clinical studies, bimatoprost 0.03%/timolol 0.5% Combination versus bimatoprost monotherapy: conjunctival hyperaemia; format: in vivo, human
Description: Approximately 60% of patients being treated for glaucoma require two or more agents (adjuvant therapy) to control the intraocular pressure. For this reason, combination therapies, in which two pharmaceutically active agents are combined in the same formulation, have been developed to decrease complexity in the treatment regimen, improve patient compliance, and to minimize the exposure to excipients with possible toxicity such as benzalkonium chloride. Currently, the most commonly prescribed adjuvant therapy includes a beta-blocker and a prostaglandin analogue. For this reason, Allergan has formulated bimatoprost 0.03% together with timolol 0.5% (Combination).

[4] = tested on: rabbit isolated jugular veins; test: Vasorelaxation in histamine-precontracted rabbit isolated jugular veins; format: cell-based
Description: FIG. 3. Concentration-response curves for (FIG. 3A) bimatoprost and (FIG. 3B) latanoprost free acid in histamine-precontracted endothelium-intact and endothelium-denuded rabbit isolated jugular veins. Results are expressed as mean±S.E.M. of 5-6 animals. FIG. 3A adapted from Chen J et al., Invest Ophthalmol Vis Sci 2004; 45:ARVO E-Abstract 2609; FIG. 3B extends results reported in Chen J et al., Invest Ophthalmol Vis Sci 2004; 45:ARVO E-Abstract 2609; and Pharmacology Review of New Drug Application 21-275. FDA/Center for Drug Evaluation and Research. 2001;Part 1 and Part 2:1-107. Available online at http://www.fda.gov/cder/foi/nda/2001/21275_Lumigan.htm.
FIG. 4. Concentration-response curves for (FIG. 4A) bimatoprost and (FIG. 4B) latanoprost free acid in the presence or absence of indomethacin in endothelium-intact rabbit isolated jugular veins. Results are expressed as mean±S.E.M. of 7 animals and extend previous results reported in Pharmacology Review of New Drug Application 21-275. FDA/Center for Drug Evaluation and Research. 2001;Part 1 and Part 2:1-107. Available online at http://www.fda.gov/cder/foi/nda/2001/21275_Lumigan.htm.
FIG. 5. Concentration-response curves for (FIG. 5A) bimatoprost and (FIG. 5B) latanoprost free acid in the presence of 100 μM L-NAME or 100 (μM D-NAME control in endothelium-intact rabbit isolated jugular veins. Results are expressed as mean±S.E.M. of 6 animals. *P≦0.05, compared to responses in D-NAME pretreated tissues at the same concentration, paired t-test.
The pharmacological mechanism of ocular surface hyperemia elicited by bimatoprost and latanoprost was investigated using the rabbit jugular vein preparation as a quantitative in vitro model (Chen J. et al., Br J Pharmacol 1995; 116:3035-3041). In these studies, tissues were suspended in jacketed organ baths containing Krebs buffer with 1 μM indomethacin (endothelium-intact and -denuded) or in its absence (endothelium-intact) and precontracted with 3 μM histamine. Vasorelaxant and contractile activity were determined as a percentage (%) of the control tone elicited by histamine. Statistical comparisons for the vasorelaxant activity consisted of testing for significance of difference at each of the concentrations tested using the Student'-s t-test for unpaired samples (indomethacin vs no indomethacin) and paired samples (L-NAME vs D-NAME). Differences were considered statistically significant for P-values ≦0.05.
Indomethacin is a cyclooxygenase inhibitor that is routinely used in prostanoid receptor assays (Chen J et al., Current protocols in pharmacology. New York: John Wiley & Sons, Inc., 2001; 4.18.1-4.18.41). Studies of intact and viable isolated tissues, such as the rabbit jejunum (Ferreira S H, Herman A G, Vane J R., Br J Pharmacol 1976; 56:469-477) and human bronchial muscle (Haye-Legrand I, Cerrina J, Raffestin B et al., J Pharmacol Exp Ther 1986; 239:536-541), found the basal output of prostaglandins to be 8-23 pg/mg of tissue at baseline or over 30 min collection periods. In the presence of 1.7 and 2.79 μM indomethacin, the amounts of prostaglandins generated in isolated tissues become negligible (Botting J H, Salzmann R., Br J Pharmacol 1974; 50:119-124; Haye-Legrand I, Cerrina J, Raffestin B et al., J Pharmacol Exp Ther 1986; 239:536-541). The 1 μM concentration of indomethacin in the tissue bath, in our experience, is sufficient to prevent biosynthesis of prostanoids within isolated vascular tissue preparations (Alster P, Wennmalm Å., Eur J Pharmacol 1983; 86:441-446; Chen J et al., Current protocols in pharmacology. New York: John Wiley & Sons, Inc., 2001; 4.18.1-4.18.41). At substantially higher concentrations, indomethacin has been reported to lose selectivity for prostanoid biosynthesis inhibition (Aboulafia J et al., Br J Pharmacol 1976; 58:223-228; Goodfriend T L, Simpson R U., Br J Pharmacol 1981; 72:247-255; Northover B J, Br J Pharmacol 1971; 41:540-551; Sawdy R et al., Br J Pharmacol 1998; 125:1212-1217). […]

[5] = Pooled 192024-018T & 021T (3 months), first line
[6] = Pooled 192024-018T & 021T (3 months), second line

CCNC(=O)CCC/C=C\C[C@@H]1[C@@H](/C=C/[C@@H](O)CCc2ccccc2)[C@H](O)C[C@@H]1O [Bimatoprost, bimatoprost]
time at which frequency and severity of hyperemia peaked after the first instillation ([1]; 39 patients, slit-lamp biomicroscopy): approximately 1 day | hyperemia returning to near baseline levels ([1]; month-long study): ≤ 28 days | clinical significance of the hyperemia [1]: not clinically significant | Incidence of inflammation in palpebral conjunctiva (number of animals with histopathologic findings), Upper Eyelid, Chronic active ([2]; n = 6, right eye, bimatoprost 0.03% b.i.d. for 12 months): 5 | Incidence of inflammation in palpebral conjunctiva (number of animals with histopathologic findings), Upper Eyelid, Chronic active ([2]; n = 6, right eye, bimatoprost 0.1% b.i.d. for 12 months): 3 | Incidence of inflammation in palpebral conjunctiva (number of animals with histopathologic findings), Upper Eyelid, Chronic active ([2]; n = 8, right eye, bimatoprost 0.03% q.d. for 12 months): 4 | ocular surface hyperemic response (severity) ([3]; D-NAME treated control eyes, scale 0=none, 0.5=trace, 1=mild, 2=moderate, 3=severe): trace to mild | effect of L-NAME on elicited ocular surface hyperemia ([3]; L-NAME 1% treated eyes, PGE2 0.01%, 0-6 h): blocked | Incidence of Conjunctival hyperaemia Detected on Biomicroscopy, Biomicro ≧ +1 (conjunctiva of patients; 192024-026T (3 weeks)): 18.9% | Incidence of Conjunctival hyperaemia Reported as a Treatment-Related AE (Rx-rel AE) (conjunctiva of patients; 192024-026T (3 weeks)): 27.8% | Incidence of Conjunctival hyperaemia Detected on Biomicroscopy, Biomicro ≧ +1 (conjunctiva of patients; 192024-504T (3 months)): 21.1% | Incidence of Conjunctival hyperaemia Reported as a Treatment-Related AE (Rx-rel AE) (conjunctiva of patients; 192024-504T (3 months)): 29.9% | Incidence of Conjunctival hyperaemia Detected on Biomicroscopy, Biomicro ≧ +1 (conjunctiva of patients; [5]): 30.9% | Incidence of Conjunctival hyperaemia Reported as a Treatment-Related AE (Rx-rel AE) (conjunctiva of patients; [5]): 38.5% | Incidence of Conjunctival hyperaemia Detected on Biomicroscopy, Biomicro ≧ +1 (conjunctiva of patients; [6]): 41.5% | Incidence of Conjunctival hyperaemia Reported as a Treatment-Related AE (Rx-rel AE) (conjunctiva of patients; [6]): 43.4% | vasorelaxant response in presence of 100 μM L-NAME compared to 100 μM D-NAME control ([4]; endothelium-intact histamine precontracted tissues, P≦0.05 paired t-test): significantly inhibited | difference in effects with and without 1 μM indomethacin ([4]; endothelium-intact tissues, each concentration tested): no statistically significant differences
